In ChEMBL document CHEMBL5303304, “EUbOPEN Chemogenomics Library - IncuCyte” (2023):
Values joined by “and” are separate entries in the source; they are usually repeats but may differ in a detail not shown here. Equal entries are not always repeated.

Assays:
Assay type in all cases: toxicity, cell-based
[1] = test system: HEK-293T; assay: Incucyte cell viability with HEK293T; settings: human, 10 µM, compound concentration 10 uM
[2] = test system: Fibroblast; assay: Incucyte cell viability with human fibroblast; settings: 10 µM, compound concentration 10 uM
[3] = test system: U2OS; assay: Incucyte cell viability with U2OS; settings: human, 10 µM, compound concentration 10 uM
Further: unitless GR value; below 1 slowed growth and below 0 cell loss.

Row | SMILES | Growth Rate ([1]; 0 h, replicate number 1) | Growth Rate ([3]; 0 h, replicate number 2) | Growth Rate ([3]; 6 h, replicate number 1) | Growth Rate ([3]; 6 h, replicate number 2) | Growth Rate ([3]; 12 h, replicate number 2) | Growth Rate ([3]; 18 h, replicate number 2) | Growth Rate ([3]; 24 h, replicate number 2) | Growth Rate ([2]; 12 h, replicate number 2) | Growth Rate ([2]; 18 h, replicate number 2) | Growth Rate ([2]; 24 h, replicate number 2) | Growth Rate ([3]; 0 h, replicate number 1) | Growth Rate ([1]; 6 h, replicate number 2) | Growth Rate ([1]; 12 h, replicate number 2) | Growth Rate ([1]; 18 h, replicate number 1) | Growth Rate ([1]; 18 h, replicate number 2) | Growth Rate ([1]; 24 h, replicate number 2) | Growth Rate ([2]; 6 h, replicate number 1) | Growth Rate ([2]; 12 h, replicate number 1) | Growth Rate ([3]; 12 h, replicate number 1) | Growth Rate ([1]; 24 h, replicate number 1) | also measured
1 | N#Cc1c(SCc2csc(-c3ccc(Cl)cc3)n2)nc(N2CCCC2)c(C#N)c1-c1ccc(OCCO)cc1 | -0.68 | 0.14 | 0.87 | 0.8 | 0.77 | 0.93 | 0.97 |  |  |  |  |  |  |  |  |  |  |  |  |  | Growth Rate ([1]; 0 h, replicate number 2): -0.75; Growth Rate ([2]; 0 h, replicate number 2): -1
2 | Cc1nc2ccc(Cl)cc2c(-c2ccccc2)c1CC(=O)O.Cl | 0.38 |  | 0.43 |  | 0.93 |  |  | 0.53 | 0.88 | 0.96 | 0.45 |  |  |  |  |  |  |  |  |  | 
3 | CC[C@H](CC(=O)O)n1c(=O)c2ncccc2n(Cc2cn(C)c3cc(C)cc(C)c23)c1=O [BI-1942] | 0.52 | 0.8 | 0.25 and 0.31 | 0.74 | 0.71 and 0.98 | 0.84 | 0.61 | 0.64 and 0.67 | 0.58 | 0.86 and 0.92 | 0.47 and 0.69 | 0.45 | 0.58 | 0.94 | 0.52 | 0.65 | 0.14 | 0.83 and 0.8 | 0.47 and 0.65 |  | Growth Rate ([1]; 0 h, replicate number 2): -0.53; Growth Rate ([2]; 0 h, replicate number 2): 0; Growth Rate ([2]; 6 h, replicate number 2): 0.23 and 0.17; Growth Rate ([2]; 18 h, replicate number 1): 0.75 and 0.86; Growth Rate ([2]; 24 h, replicate number 1): 0.7 and 1; Growth Rate ([3]; 18 h, replicate number 1): 0.61 and 0.75; Growth Rate ([3]; 24 h, replicate number 1): 0.67 and 0.73
4 | Cl.O=S(=O)(c1cccc2c(I)cccc12)N1CCCNCC1 |  |  |  | 0.86 |  |  |  | 0.87 |  | 0.96 | -1 |  |  | 0.81 |  | 0.88 | -1 |  |  | 0.89 | Growth Rate ([1]; 6 h, replicate number 1): -0.39; Growth Rate ([1]; 12 h, replicate number 1): 0.3; Growth Rate ([2]; 6 h, replicate number 2): -0.05
5 | C/C=C1\C(=O)CC2C3CCC4=CC(=O)CC[C@]4(C)C3CC[C@]12C (stereo partly drawn) |  |  | 0.52 |  |  |  |  | 0.88 | 0.96 | 0.9 | 0.15 | 0.44 | 0.92 | 0.83 |  |  | -0.19 | 0.83 | 0.73 | 0.84 | Growth Rate ([1]; 6 h, replicate number 1): 0.43; Growth Rate ([1]; 12 h, replicate number 1): 0.69; Growth Rate ([2]; 6 h, replicate number 2): 0.33; Growth Rate ([2]; 18 h, replicate number 1): 0.64; Growth Rate ([2]; 24 h, replicate number 1): 0.81; Growth Rate ([3]; 18 h, replicate number 1): 0.92
6 | COc1ccc(-c2csc(NC(=O)[C@H]3CCCCN3S(=O)(=O)c3ccc(C)cc3)n2)cc1 |  | -0.9 | 0.92 | 0.97 |  |  |  |  | 0.57 | 0.7 | 0.22 | 0.07 and 0.12 | 0.37 | 0.35 and 0.26 | 0.3 and 0.38 | 0.41 and 0.4 | 0.02 | 0.31 | 0.99 | 0.37 and 0.33 | Growth Rate ([2]; 0 h, replicate number 1): -1 and -0.88; Growth Rate ([2]; 24 h, replicate number 1): 0.84; Growth Rate ([3]; 24 h, replicate number 1): 0.87 and 0.98
7 | C[C@]12CC[C@@H]3c4ccc(C(N)=O)cc4CC[C@H]3[C@@H]1CC=C2c1cncc(F)c1 | -0.13 |  |  |  | 0.79 | 0.92 | 1 |  |  |  | 0.64 | -0.72 | 0.31 | 0.96 | 0.29 | 0.4 |  |  | 0.98 | 0.97 | Growth Rate ([1]; 6 h, replicate number 1): 0.93; Growth Rate ([1]; 12 h, replicate number 1): 0.9; Growth Rate ([2]; 0 h, replicate number 2): -0.92
8 | Cn1c2ccccc2c2c3c(c4c5ccccc5n(CCC#N)c4c21)CNC3=O [GO-6976] | -0.49 | -0.94 |  |  |  | 0.63 | 0.39 |  | 0.88 | 0.48 |  | 0.05 | -0.2 | 0.36 | -0.19 | -0.14 | -0.79 | -1 |  | 0.7 | Growth Rate ([1]; 0 h, replicate number 2): -0.13; Growth Rate ([1]; 6 h, replicate number 1): 0.62; Growth Rate ([1]; 12 h, replicate number 1): 0.69; Growth Rate ([3]; 18 h, replicate number 1): 0.29; Growth Rate ([3]; 24 h, replicate number 1): 0.17
